We go through 73 compounds from publication PMC9718554, “Discovery of a fragment hit compound targeting D-Ala:D-Ala ligase of bacterial peptidoglycan biosynthesis” (Journal of Enzyme Inhibition and Medicinal Chemistry, 2022).

Residues, ends and D or L forms follow the SMILES beside them.

One experiment has as its target T1, E. coli DdlB enzyme (D-alanine:D-alanine ligase) (Escherichia coli, UniProt P07862).
T1 construct: made in house; host or cells: E. coli
In words: biochemical. To be noted: fragment library screening; tested concentration 1.7 mM; read-out: DdlB RA.
Turning to `C[C@H](NC(=O)[C@H](C)n1nnc2ccccc2c1=O)C(=O)O` [Compound Y040-2749], the remaining activity at 1700 µM came out at 92%.

Staying with this experiment, now noted: fragment library screening; tested concentration 1.8 mM; read-out: DdlB RA.
For the compound `O=C(O)C[C@H]1NC(=O)N(CCc2cccc(F)c2)C1=O` [Compound Y042-2983], the remaining activity at 1800 µM amounted to 93%.

For the compound `O=C(O)CCCc1nc2ccccc2c(=O)n1C1CC1` [Compound Y042-5065], the remaining activity at 1800 µM worked out at 92%.

`O=C(O)CCCn1cnc2ccc([N+](=O)[O-])cc2c1=O` [Compound Y044-6460]: the remaining activity at 1800 µM turned out to be 63%.

For the compound `O=C(O)CCCC(=O)N1CCN(c2ccccc2)CC1` [Compound Y204-6418], the remaining activity at 1800 µM was determined as 99%.

Take `O=C(O)[C@@H]1[C@H]2CC[C@H](CC2)[C@@H]1C(=O)NCc1ccco1` [Compound Y206-3693]: the remaining activity at 1800 µM stood at 92%.

The same experiment, now with this note: fragment library screening; tested concentration 1.9 mM; read-out: DdlB RA.
Consider `O=C(O)CCC(=O)N1CCO[C@H](c2ccccc2)C1` [Compound Y044-6579], for which the remaining activity at 1900 µM was determined as 93%.

For `O=C(Nc1cccc(F)c1)[C@H]1CCCC[C@H]1C(=O)O` [Compound Y203-6612], the remaining activity at 1900 µM was 93%.

For the compound `O=C(NCc1ccncc1)[C@H]1CC=CC[C@H]1C(=O)O` [Compound Y204-2545], the remaining activity at 1900 µM came to 75%.

The experiment is the same for the next values; noted with them: fragment library screening; tested concentration 2.0 mM; read-out: DdlB RA.
`O=C(O)c1ccc(N2Cc3ccccc3C2=O)cc1` [Compound Y042-2866]: the remaining activity at 2000 µM turned out to be 82%.

Turning to `O=C(O)c1cc(-c2cccnc2)nc2ccccc12` [Compound Y042-7719], the remaining activity at 2000 µM stood at 85%.

Consider `O=C(O)CC1CCN(c2ccc(Cl)nn2)CC1` [Compound Y043-2007], for which the remaining activity at 2000 µM is 90%.

In the case of `O=C(Nc1cccnc1)[C@H]1CCCC[C@H]1C(=O)O` [Compound Y203-7528], the remaining activity at 2000 µM was 91%.

On to `Cc1ccc2c(c1)CCCN2C(=O)CCC(=O)O` [Compound Y206-3286], for which the remaining activity at 2000 µM was 90%.

The same experiment, now with this note: residual activity; tested concentration 1.8 mM; read-out: DdlB RA.
In the case of `COc1cccc(C(=O)Nc2ccccc2C(=O)O)c1` [Compound Y030-1668], the remaining activity at 1800 µM was 97%.

The same experiment, now with this note: residual activity; tested concentration 1.9 mM; read-out: DdlB RA.
`Cc1cc(NC(=O)C2CC(=O)N(C3CCCCC3)C2)no1` (stereo not shown) [Compound Y031-2007]: the remaining activity at 1900 µM was determined as 83%.

Consider `CN1CCN(C(=O)Nc2ccccc2C(=O)O)CC1` [Compound Y043-2499], for which the remaining activity at 1900 µM was found to be 92%.

In the case of `CCn1cc(C(=O)Nc2ccccc2C(=O)O)cn1` [Compound Y501-0105], the remaining activity at 1900 µM worked out at 88%.

Regarding `Cc1nn(C(F)F)cc1S(=O)(=O)N1CCC(C)CC1` [Compound Y501-4822], the remaining activity at 1900 µM worked out at 97%.

Staying with this experiment, now noted: residual activity; tested concentration 2.0 mM; read-out: DdlB RA.
For `O=C(O)c1ccccc1NC(=O)N1CCOCC1` [Compound Y043-2494], the remaining activity at 2000 µM was 96%.

Staying with this experiment, now noted: residual activity; tested concentration 2.1 mM; read-out: DdlB RA.
Consider `CC(CCc1ccccc1)NC(=O)N1CCOCC1` (stereo not shown) [Compound Y030-6075], for which the remaining activity at 2100 µM amounted to 94%.

As for `CCS(=O)(=O)N1CCC(C(=O)N2CCCCC2)CC1` [Compound Y050-2528], the remaining activity at 2100 µM was determined as 97%.

Regarding `CC1CN(S(=O)(=O)c2ccc(F)c(F)c2)CC(C)O1` (stereo not shown) [Compound Y202-8173], the remaining activity at 2100 µM was 95%.

For `Cc1ccc(CS(=O)(=O)N2CCc3ccccc32)cc1` [Compound Y300-3078], the remaining activity at 2100 µM worked out at 112%.

Staying with this experiment, now noted: residual activity; tested concentration 2.2 mM; read-out: DdlB RA.
Consider `Cc1onc(-c2ccccc2Cl)c1C(=O)NCC#N` [Compound Y030-1543], for which the remaining activity at 2200 µM came to 98%.

For `CCC(C)(C)NC(=O)C1CC(=O)N(c2ccccc2)C1` (stereo not shown) [Compound Y031-3748], the remaining activity at 2200 µM amounted to 101%.

Regarding `Cc1c(C)c(C)c(S(=O)(=O)NC(C)C)c(C)c1C` [Compound Y206-5269], the remaining activity at 2200 µM came out at 77%.

As for `Cc1ccccc1CS(=O)(=O)N1CCCC(C)C1` (stereo not shown) [Compound Y300-2308], the remaining activity at 2200 µM turned out to be 95%.

The experiment is the same for the next values; noted with them: residual activity; tested concentration 2.3 mM; read-out: DdlB RA.
In the case of `O=S(=O)(c1ccccc1)N1CCN2CCCC2C1` (stereo not shown) [Compound Y206-5298], the remaining activity at 2300 µM turned out to be 92%.

`Cc1c(Br)c(C(=O)O)nn1C` [Compound Y501-6296]: the remaining activity at 2300 µM worked out at 107%.

In the case of `CCn1cc(Br)c(C(=O)O)n1` [Compound Y501-6363], the remaining activity at 2300 µM was 90%.

Still in this experiment, the particulars now being: tested concentration 1.7 mM; read-out: DdlB RA.
As for `NS(=O)(=O)c1ccc(CNC(=O)N2CCOCC2)cc1` [Compound Y030-3729], the remaining activity at 1700 µM was 104%.

Consider `Cc1ccc(S(N)(=O)=O)cc1NC(=O)c1cccnc1` [Compound Y202-7310], for which the remaining activity at 1700 µM worked out at 100%.

As for `NS(=O)(=O)c1ccc(NC(=O)CCC2CCCC2)cc1` [Compound Y204-2561], the remaining activity at 1700 µM was found to be 87%.

For the compound `NS(=O)(=O)c1ccc(CNC(=O)c2ccncc2)cc1` [Compound Y205-1594], the remaining activity at 1700 µM stood at 102%.

In the case of `O=C(O)c1cc(Br)cc(Br)c1O` [Compound Y501-3736], the remaining activity at 1700 µM is -39%.

Staying with this experiment, now noted: tested concentration 1.8 mM; read-out: DdlB RA.
On to `CCCC(C)C(=O)Nc1ccc(S(N)(=O)=O)cc1` (stereo not shown) [Compound Y030-4922], for which the remaining activity at 1800 µM was 77%.

Take `NS(=O)(=O)c1ccc(CNC(=O)C2CCCO2)cc1` (stereo not shown) [Compound Y030-8649]: the remaining activity at 1800 µM came to 97%.

`Cc1ccc(S(N)(=O)=O)cc1C(=O)NCC(C)C` [Compound Y050-1744]: the remaining activity at 1800 µM stood at 83%.

Consider `CCC(CC)C(=O)Nc1ccc(S(N)(=O)=O)cc1` [Compound Y203-8619], for which the remaining activity at 1800 µM was determined as 81%.

In the case of `O=C(O)C1CCCCC1C(=O)NCc1ccc(F)cc1` (stereo not shown) [Compound Y204-1009], the remaining activity at 1800 µM worked out at 95%.

With `NS(=O)(=O)c1ccc(CNC(=O)C2CCCC2)cc1` [Compound Y207-3980], the remaining activity at 1800 µM is 93%.

Still in this experiment, the particulars now being: tested concentration 2.0 mM; read-out: DdlB RA.
Turning to `O=C(O)c1ccccc1NC(=O)C1CCCCC1` [Compound Y030-1673], the remaining activity at 2000 µM worked out at 104%.

In the case of `CCCCC(=O)Nc1ccc(S(N)(=O)=O)cc1` [Compound Y030-9753], the remaining activity at 2000 µM was 96%.

Consider `Cc1cc(C)n(C(=O)C2CC=CCC2C(=O)O)n1` (stereo not shown) [Compound Y203-9842], for which the remaining activity at 2000 µM was 90%.

Turning to `O=C(O)CCC(=O)NC1C2CC3CC(C2)CC1C3` (stereo not shown) [Compound Y206-2966], the remaining activity at 2000 µM was 90%.

The same experiment, now with this note: tested concentration 2.1 mM; read-out: DdlB RA.
`CC(=O)N1CCC2(CCc3ccc(O)cc3O2)CC1` [Compound Y041-9811]: the remaining activity at 2100 µM came to 94%.

With `O=C(O)C(Cc1ccccc1)Nc1ncccn1` (stereo not shown) [Compound Y042-3157], the remaining activity at 2100 µM is 90%.

Turning to `NCC(=O)N[C@@H](Cc1ccc(O)cc1)C(=O)O` [Compound Y043-8421] (H-Gly-Tyr-OH), the remaining activity at 2100 µM amounted to 95%.

With `O=C(NC1CCCC1)[C@H]1CCCC[C@H]1C(=O)O` [Compound Y203-9770], the remaining activity at 2100 µM was determined as 91%.

On to `O=S(=O)(Cc1ccccc1F)N1CCOCC1` [Compound Y300-2685], for which the remaining activity at 2100 µM worked out at 95%.

Still in this experiment, the particulars now being: tested concentration 2.2 mM; read-out: DdlB RA.
For the compound `CC1CCCCC1NS(=O)(=O)c1ccccc1` (stereo not shown) [Compound Y206-4071], the remaining activity at 2200 µM came to 91%.

The experiment is the same for the next values; noted with them: tested concentration 2.3 mM; read-out: DdlB RA.
Consider `CC(C)(C)NS(=O)(=O)Cc1ccc(Cl)cc1` [Compound Y031-1123], for which the remaining activity at 2300 µM came out at 91%.

Regarding `O=c1[nH]c2ncc(Br)cc2o1` [Compound Y042-2897], the remaining activity at 2300 µM was 92%.

Take `O=C(O)CCc1nnc2ccccn2c1=O` [Compound Y042-3065]: the remaining activity at 2300 µM was 102%.

For `CCOc1ccc(S(N)(=O)=O)cc1C` [Compound Y050-1019], the remaining activity at 2300 µM amounted to 79%.

In the case of `CN(C)CC(=O)Nc1ccc(Cl)cn1` [Compound Y206-6252], the remaining activity at 2300 µM was 95%.

For `Cc1cccc(CS(=O)(=O)N2CCCC2)c1` [Compound Y300-2952], the remaining activity at 2300 µM came to 98%.

Take `N#Cc1cnn2c1NC(C1CC1)CC2C(F)(F)F` (stereo not shown) [Compound Y501-9194]: the remaining activity at 2300 µM amounted to 83%.

The same experiment, now with this note: tested concentration 2.4 mM; read-out: DdlB RA.
Take `O=C(O)c1ccnc(N2CCOCC2)c1` [Compound Y043-8163]: the remaining activity at 2400 µM was determined as 89%.

As to `CC(C)CS(=O)(=O)N1CCc2ccccc2C1` [Compound Y200-6914], the remaining activity at 2400 µM stood at 73%.

`CCS(=O)(=O)Nc1c(C)cc(C)cc1C` [Compound Y202-7340]: the remaining activity at 2400 µM was 90%.

As to `CNS(=O)(=O)c1ccc2c(c1)CCN2C(C)=O` [Compound Y300-1529], the remaining activity at 2400 µM is 90%.

On to `CCN(C(=O)c1n[nH]cc1Cl)c1ccccc1` [Compound Y501-5069], for which the remaining activity at 2400 µM was 95%.

The experiment is the same for the next values; noted with them: tested concentration 2.5 mM; read-out: DdlB RA.
On to `N#CCC(=O)N(c1ccccc1)c1ccccc1` [Compound Y204-3664], for which the remaining activity at 2500 µM was 89%.

Consider `CN(C)S(=O)(=O)Cc1ccccc1F` [Compound Y300-2671], for which the remaining activity at 2500 µM came out at 95%.

Consider `Cc1ccc(-c2noc(C(=O)O)n2)cc1` [Compound Y501-1890], for which the remaining activity at 2500 µM came to 77%.

Staying with this experiment, now noted: tested concentration 2.6 mM; read-out: DdlB RA.
For the compound `CCS(=O)(=O)Nc1cc(C(C)(C)C)on1` [Compound Y206-0720], the remaining activity at 2600 µM stood at 91%.

The experiment is the same for the next values; noted with them: tested concentration 2.7 mM; read-out: DdlB RA.
Consider `O=C(O)C1C2CCC(C2)C1C(=O)NC1CC1` (stereo not shown) [Compound Y205-0716], for which the remaining activity at 2700 µM turned out to be 93%.

`Cc1ccc(S(=O)(=O)NC2CC2)c(C)c1` [Compound Y206-5066]: the remaining activity at 2700 µM worked out at 94%.

Staying with this experiment, now noted: tested concentration 2.8 mM; read-out: DdlB RA.
Take `Cc1ccccc1CS(=O)(=O)N(C)C` [Compound Y300-2769]: the remaining activity at 2800 µM turned out to be 87%.

Still in this experiment, the particulars now being: tested concentration 3.0 mM; read-out: DdlB RA.
For the compound `CCS(=O)(=O)Nc1cccc(F)c1` [Compound Y207-1326], the remaining activity at 3000 µM was determined as 92%.

Staying with this experiment, now noted: tested concentration 3.1 mM; read-out: DdlB RA.
Turning to `Oc1cc(-c2ccccc2)n[nH]1` [Compound Y501-8801], the remaining activity at 3100 µM came out at 102%.
